Experimental data taken from patent US11427549B2, “Pyrimidinyloxy benzo-fused compounds as herbicides” (FMC Corporation, priority 2017, dated 2022).

Columns and labels:
[1] = test system: galium (catchweed bedstraw, Galium aparine); assay: Test A postemergence, galium; format: in vivo; details: Galium, post-emergence, 240 h, 0 to 100 scale (0 no effect, 100 complete control), read-out: Plant response rating, Galium; for pest or weed control at 31 g/ha: 31 g ai/ha; for pest or weed control at 125 g/ha: 125 g ai/ha
Description: (§1) Seeds of plant species selected from barnyardgrass (Echinochloa crus-galli), kochia (Kochia scoparia), ragweed (common ragweed, Ambrosia elatior), ryegrass, Italian (Italian ryegrass, Lolium multiflorum), foxtail, giant (giant foxtail, Setaria faberii), foxtail, green (green foxtail, Setaria viridis) and pigweed (Amaranthus retroflexus) were planted into a blend of loam soil and sand and treated preemergence with a directed soil spray using test chemicals formulated in a non-phytotoxic solvent mixture which included a surfactant.
(§2) At the same time, plants selected from these weed species and also wheat (Triticum aestivum), corn (Zea mays), blackgrass (Alopecurus myosuroides), and galium (catchweed bedstraw, Galium aparine) were planted in pots containing the same blend of loam soil and sand and treated with postemergence applications of test chemicals formulated in the same manner. Plants ranged in height from 2 to 10 cm and were in the one- to two-leaf stage for the postemergence treatment. Treated plants and untreated controls were maintained in a greenhouse for approximately 10 days, after which time all treated plants were compared to untreated controls and visually evaluated for injury. […] A dash (-) response means no test result.

[2] = test system: blackgrass (Alopecurus myosuroides); assay: Test A postemergence, blackgrass; format: in vivo; details: Alopecurus myosuroides, post-emergence, 240 h, 0 to 100 scale (0 no effect, 100 complete control), read-out: Plant response rating, Blackgrass; for pest or weed control at 31 g/ha: 31 g ai/ha; for pest or weed control at 125 g/ha: 125 g ai/ha
Description: as §1, §2

[3] = test system: barnyardgrass (Echinochloa crus-galli); assay: Test A preemergence, barnyardgrass; format: in vivo; details: Echinochloa crus-galli, pre-emergence, 240 h, 0 to 100 scale (0 no effect, 100 complete control), read-out: Plant response rating, Barnyardgrass; for pest or weed control at 31 g/ha: 31 g ai/ha; for pest or weed control at 125 g/ha: 125 g ai/ha
Description: as §1, §2

[4] = test system: corn (Zea mays); assay: Test A postemergence, corn; format: in vivo; details: Zea mays, post-emergence, 240 h, 0 to 100 scale (0 no effect, 100 complete control); for Corn plant response rating (crop injury, 0 = no effect, 100 = complete kill) at 31 g/ha: 31 g ai/ha; for Corn plant response rating (crop injury, 0 = no effect, 100 = complete kill) at 125 g/ha: 125 g ai/ha
Description: as §1, §2

[5] = test system: barnyardgrass (Echinochloa crus-galli); assay: Test B flooded paddy test, barnyardgrass; details: Echinochloa crus-galli, read-out: Plant response rating, Barnyardgrass (0 to 100 scale, 0 is no effect, 100 is complete control)
[6] = test system: kochia (Kochia scoparia); assay: Test A postemergence, kochia; format: in vivo; details: Bassia scoparia, post-emergence, 240 h, 0 to 100 scale (0 no effect, 100 complete control), read-out: Plant response rating, Kochia; for pest or weed control at 31 g/ha: 31 g ai/ha; for pest or weed control at 125 g/ha: 125 g ai/ha
Description: as §1, §2

[7] = test system: barnyardgrass (Echinochloa crus-galli); assay: Test A postemergence, barnyardgrass; format: in vivo; details: Echinochloa crus-galli, post-emergence, 240 h, 0 to 100 scale (0 no effect, 100 complete control), read-out: Plant response rating, Barnyardgrass; for pest or weed control at 31 g/ha: 31 g ai/ha; for pest or weed control at 125 g/ha: 125 g ai/ha
Description: as §1, §2

[8] = test system: pigweed (Amaranthus retroflexus); assay: Test A postemergence, pigweed; format: in vivo; details: Amaranthus retroflexus, post-emergence, 240 h, 0 to 100 scale (0 no effect, 100 complete control), read-out: Plant response rating, Pigweed; for pest or weed control at 31 g/ha: 31 g ai/ha; for pest or weed control at 125 g/ha: 125 g ai/ha
Description: as §1, §2

[9] = test system: kochia (Kochia scoparia); assay: Test A preemergence, kochia; format: in vivo; details: Bassia scoparia, pre-emergence, 240 h, 0 to 100 scale (0 no effect, 100 complete control), read-out: Plant response rating, Kochia; for pest or weed control at 31 g/ha: 31 g ai/ha; for pest or weed control at 125 g/ha: 125 g ai/ha
Description: as §1, §2

[10] = test system: rice (Oryza sativa); assay: Test B flooded paddy test, rice; details: Oryza sativa, read-out: Plant response rating, Rice (0 to 100 scale, 0 is no effect, 100 is complete control)
[11] = test system: ducksalad (Heteranthera limosa); assay: Test B flooded paddy test, ducksalad; details: Heteranthera limosa, read-out: Plant response rating, Ducksalad (0 to 100 scale, 0 is no effect, 100 is complete control)
[12] = test system: ryegrass, Italian (Italian ryegrass, Lolium multiflorum); assay: Test A postemergence, ryegrass, Italian; format: in vivo; details: Lolium multiflorum, post-emergence, 240 h, 0 to 100 scale (0 no effect, 100 complete control), read-out: Plant response rating, Ryegrass, Italian; for pest or weed control at 31 g/ha: 31 g ai/ha; for pest or weed control at 125 g/ha: 125 g ai/ha
Description: as §1, §2

[13] = test system: ragweed (common ragweed, Ambrosia elatior); assay: Test A preemergence, ragweed; format: in vivo; details: Ambrosia artemisiifolia, pre-emergence, 240 h, 0 to 100 scale (0 no effect, 100 complete control), read-out: Plant response rating, Ragweed; for pest or weed control at 31 g/ha: 31 g ai/ha; for pest or weed control at 125 g/ha: 125 g ai/ha
Description: as §1, §2

[14] = test system: pigweed (Amaranthus retroflexus); assay: Test A preemergence, pigweed; format: in vivo; details: Amaranthus retroflexus, pre-emergence, 240 h, 0 to 100 scale (0 no effect, 100 complete control), read-out: Plant response rating, Pigweed; for pest or weed control at 31 g/ha: 31 g ai/ha; for pest or weed control at 125 g/ha: 125 g ai/ha
Description: as §1, §2

[15] = test system: ragweed (common ragweed, Ambrosia elatior); assay: Test A postemergence, ragweed; format: in vivo; details: Ambrosia artemisiifolia, post-emergence, 240 h, 0 to 100 scale (0 no effect, 100 complete control), read-out: Plant response rating, Ragweed; for pest or weed control at 31 g/ha: 31 g ai/ha; for pest or weed control at 125 g/ha: 125 g ai/ha
Description: as §1, §2

[16] = test system: wheat (Triticum aestivum); assay: Test A postemergence, wheat; format: in vivo; details: Triticum aestivum, post-emergence, 240 h, 0 to 100 scale (0 no effect, 100 complete control), read-out: Plant response rating, Wheat; for plant injury at 31 g/ha: 31 g ai/ha; for plant injury at 125 g/ha: 125 g ai/ha
Description: as §1, §2

[17] = test system: ryegrass, Italian (Italian ryegrass, Lolium multiflorum); assay: Test A preemergence, ryegrass, Italian; format: in vivo; details: Lolium multiflorum, pre-emergence, 240 h, 0 to 100 scale (0 no effect, 100 complete control), read-out: Plant response rating, Ryegrass, Italian; for pest or weed control at 31 g/ha: 31 g ai/ha; for pest or weed control at 125 g/ha: 125 g ai/ha
Description: as §1, §2

| Compound | pest or weed control at 31 g/ha [1] [%] | pest or weed control at 125 g/ha [1] [%] | pest or weed control at 31 g/ha [2] [%] | pest or weed control at 125 g/ha [2] [%] | pest or weed control at 31 g/ha [3] [%] | pest or weed control at 125 g/ha [3] [%] | Corn plant response rating (crop injury, 0 = no effect, 100 = complete kill) at 31 g/ha [4] [%] | Corn plant response rating (crop injury, 0 = no effect, 100 = complete kill) at 125 g/ha [4] [%] | pest or weed control at 250 g/ha [5] [%] | pest or weed control at 31 g/ha [6] [%] | pest or weed control at 125 g/ha [6] [%] | pest or weed control at 31 g/ha [7] [%] | pest or weed control at 125 g/ha [7] [%] | pest or weed control at 31 g/ha [8] [%] | pest or weed control at 125 g/ha [8] [%] | pest or weed control at 31 g/ha [9] [%] | pest or weed control at 125 g/ha [9] [%] | plant injury at 250 g/ha [10] [%] | pest or weed control at 250 g/ha [11] [%] | pest or weed control at 31 g/ha [12] [%] | also measured |
| --- | --- | --- | --- | --- | --- | --- | --- | --- | --- | --- | --- | --- | --- | --- | --- | --- | --- | --- | --- | --- | --- |
| FC(F)(F)CCC1OCCc2cccc(Oc3ncc(Cl)cn3)c21 (stereo not drawn) [Compound 32, 5-Chloro-2-[[3,4-dihydro-1-(3,3,3-trifluoropropyl)-1H-2-benzopyran-8-yl]oxy]pyrimidine] | 10 | 20 | 10 | 30 | 0 | 40 | 10 | 20 | 0 | 0 | 10 | 10 | 20 | 20 | 40 | 0 | 0 | 0 | 95 | 0 | pest or weed control at 125 g/ha [12]: 0%; pest or weed control at 31 g/ha [13]: 0%; pest or weed control at 125 g/ha [13]: 0%; pest or weed control at 31 g/ha [14]: 0%; pest or weed control at 125 g/ha [14]: 60%; pest or weed control at 31 g/ha [15]: 0%; pest or weed control at 125 g/ha [15]: 0%; plant injury at 31 g/ha [16]: 0%; plant injury at 125 g/ha [16]: 10%; pest or weed control at 31 g/ha [17]: 0%; pest or weed control at 125 g/ha [17]: 0% |
| FC(F)(F)CCCC1OCCc2cccc(Oc3ncc(Cl)cn3)c21 (stereo not drawn) [Compound 27, 5-Chloro-2-[[3,4-dihydro-1-(4,4,4-trifluorobutyl)-1H-2-benzopyran-8-yl]oxy]pyrimidine] | 40 | 80 | 20 | 40 | 10 | 80 | 20 | 30 | 0 | 10 | 10 | 20 | 30 | 50 | 70 | 0 | 0 | 0 | 95 | 10 | pest or weed control at 125 g/ha [12]: 40%; pest or weed control at 31 g/ha [13]: 0%; pest or weed control at 125 g/ha [13]: 0%; pest or weed control at 31 g/ha [14]: 30%; pest or weed control at 125 g/ha [14]: 50%; pest or weed control at 31 g/ha [15]: 0%; pest or weed control at 125 g/ha [15]: 10%; plant injury at 31 g/ha [16]: 0%; plant injury at 125 g/ha [16]: 10%; pest or weed control at 31 g/ha [17]: 0%; pest or weed control at 125 g/ha [17]: 20% |
| O=C1OC(CCC(F)(F)F)Cc2c(Oc3ncc(Cl)cn3)cccc21 (stereo not drawn) [Compound 23, 5-[(5-Chloro-2-pyrimidinyl)oxy]-3,4-dihydro-3-(3,3,3-trifluoropropyl)-1H-2-benzopyran-1-one] | 40 | 70 | 20 | 30 | 0 | 30 | 10 | 20 | 0 | 20 | 70 | 20 | 20 | 60 | 70 | 0 | 60 | 0 | 0 | 0 | pest or weed control at 125 g/ha [12]: 0%; pest or weed control at 31 g/ha [13]: 0%; pest or weed control at 125 g/ha [13]: 0%; pest or weed control at 31 g/ha [14]: 20%; pest or weed control at 125 g/ha [14]: 100%; pest or weed control at 31 g/ha [15]: 0%; pest or weed control at 125 g/ha [15]: 10%; plant injury at 31 g/ha [16]: 20%; plant injury at 125 g/ha [16]: 30%; pest or weed control at 31 g/ha [17]: 0%; pest or weed control at 125 g/ha [17]: 0% |
